From US10087156B2, “Methods and compositions related to retinoid receptor-selective pathway” (Sanford Burnham Prebys Medical Discovery Institute, priority 2010, dated 2018)

Key:
[1] = Preclinical bioavailability and pharmacokinetics; assay type: in vivo
Experimental: Preclinical studies of K-80003 were performed, including the investigation of toxicity, bioavailability, and pharmacokinetics.

[2] = system: AKT; experiment: Retinoic acid-induced AKT activation by immunoblotting; assay type: cell-based; conditions: 50 μM each, Caco-2 and MEF cells
Experimental: MEF and Caco-2 cells were starved overnight and pretreated with Sulindac for 30 min before exposure to all-trans-retinoic acid (ATRA) (10^−7 M) for 30 min and analyzed for AKT activation (FIG. 12B).
Caco-2 and MEF cells were treated with the indicated concentration of Sulindac or K-80003 for 30 min, then stimulated with all-trans-RA (10^−7 M) for 15 min. AKT activation was analyzed by immunoblotting.
For immunoblotting, cell lysates were boiled in SDS sample buffer, resolved by SDS-polyacrylamide gel electrophoresis, and transferred to nitrocellulose. After transfer, the membranes were blocked in 5% milk in TBST (10 mM Tris-HCl, pH. 8.0, 150 mM NaCl, 0.05% Tween 20) containing antibody. The membranes were then washed three times with TBST, then incubated for 1 hr at room temperature in 5% milk in TBST containing horseradish peroxide-linked anti-immunoglobulin.

[3] = target: T1, COX-2 (Homo sapiens, UniProt P35354); experiment: COX activity assay; assay type: biochemical
T1 construct: purchased Cayman Chemical 700100
T1 sequence (P35354 18-604): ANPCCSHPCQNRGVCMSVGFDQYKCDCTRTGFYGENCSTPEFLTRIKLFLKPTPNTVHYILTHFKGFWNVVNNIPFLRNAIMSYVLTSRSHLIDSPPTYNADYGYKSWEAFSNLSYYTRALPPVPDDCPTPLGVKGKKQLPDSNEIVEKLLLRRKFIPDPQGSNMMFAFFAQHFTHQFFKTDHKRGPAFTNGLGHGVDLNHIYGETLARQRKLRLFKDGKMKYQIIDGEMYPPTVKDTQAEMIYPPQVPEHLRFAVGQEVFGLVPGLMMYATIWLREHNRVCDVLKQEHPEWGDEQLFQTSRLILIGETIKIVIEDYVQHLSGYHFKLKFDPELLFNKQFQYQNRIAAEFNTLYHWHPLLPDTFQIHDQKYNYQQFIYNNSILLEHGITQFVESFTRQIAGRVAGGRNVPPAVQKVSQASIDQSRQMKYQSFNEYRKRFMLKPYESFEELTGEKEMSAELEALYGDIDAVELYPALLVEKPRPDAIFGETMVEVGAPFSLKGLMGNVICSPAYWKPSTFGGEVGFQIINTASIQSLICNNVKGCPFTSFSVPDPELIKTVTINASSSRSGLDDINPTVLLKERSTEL
Experimental: (§1) COX Fluorescent Activity Assay Kit (700200), COX Fluorescent Inhibitor Screening Assay Kit (700100) and Prostaglandin E2 Enzyme Immunoassay (EIA) Kit (514010) were obtained from Cayman Chemical (Ann Arbor, Mich.). COX-1 and COX-2 activity assay were performed according to the manufacturer's protocol.

[4] = target: T2, COX-1 (Ovis aries, UniProt P05979); experiment: COX activity assay; assay type: biochemical
T2 construct: purchased Cayman Chemical 700100
T2 sequence (P05979 25-600): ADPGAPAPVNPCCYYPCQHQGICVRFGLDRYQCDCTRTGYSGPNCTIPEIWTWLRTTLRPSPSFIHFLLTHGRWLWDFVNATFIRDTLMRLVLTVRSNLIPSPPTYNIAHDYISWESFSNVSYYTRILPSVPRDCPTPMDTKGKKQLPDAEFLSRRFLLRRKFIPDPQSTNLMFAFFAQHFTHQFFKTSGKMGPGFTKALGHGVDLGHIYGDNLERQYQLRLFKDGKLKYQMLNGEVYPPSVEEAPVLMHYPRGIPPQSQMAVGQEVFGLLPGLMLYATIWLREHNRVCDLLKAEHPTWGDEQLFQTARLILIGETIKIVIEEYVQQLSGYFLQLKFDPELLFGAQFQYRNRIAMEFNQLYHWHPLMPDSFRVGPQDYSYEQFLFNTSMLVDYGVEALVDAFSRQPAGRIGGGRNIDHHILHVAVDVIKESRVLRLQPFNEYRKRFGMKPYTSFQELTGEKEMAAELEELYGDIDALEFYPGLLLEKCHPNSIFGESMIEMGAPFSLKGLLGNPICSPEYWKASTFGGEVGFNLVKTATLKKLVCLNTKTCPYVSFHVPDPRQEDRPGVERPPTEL
Experimental: as §1

[5] = target: T3, RXRα LBD (Homo sapiens, UniProt P19793); experiment: 19F NMR binding assay; conditions: 100 μM compound, 10 μM RXRα LBD
T3 sequence (P19793 227-458 limits assumed): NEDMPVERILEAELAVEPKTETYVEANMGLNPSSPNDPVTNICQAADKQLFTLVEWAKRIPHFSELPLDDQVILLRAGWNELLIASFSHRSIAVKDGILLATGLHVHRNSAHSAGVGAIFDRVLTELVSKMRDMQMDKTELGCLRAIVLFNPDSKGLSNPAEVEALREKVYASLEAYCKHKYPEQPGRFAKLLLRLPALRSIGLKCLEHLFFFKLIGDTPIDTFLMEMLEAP

[6] = target: T4, RXRα (Homo sapiens, UniProt P19793); experiment: HPLC analysis of sulindac sulfide binding to receptor protein in cells; conditions: HEK293T cells stably expressing TAP-tagged receptor, 100 μM, 3 hr
T4 construct: expressed in transfected cells
T4 sequence (P19793 whole entry): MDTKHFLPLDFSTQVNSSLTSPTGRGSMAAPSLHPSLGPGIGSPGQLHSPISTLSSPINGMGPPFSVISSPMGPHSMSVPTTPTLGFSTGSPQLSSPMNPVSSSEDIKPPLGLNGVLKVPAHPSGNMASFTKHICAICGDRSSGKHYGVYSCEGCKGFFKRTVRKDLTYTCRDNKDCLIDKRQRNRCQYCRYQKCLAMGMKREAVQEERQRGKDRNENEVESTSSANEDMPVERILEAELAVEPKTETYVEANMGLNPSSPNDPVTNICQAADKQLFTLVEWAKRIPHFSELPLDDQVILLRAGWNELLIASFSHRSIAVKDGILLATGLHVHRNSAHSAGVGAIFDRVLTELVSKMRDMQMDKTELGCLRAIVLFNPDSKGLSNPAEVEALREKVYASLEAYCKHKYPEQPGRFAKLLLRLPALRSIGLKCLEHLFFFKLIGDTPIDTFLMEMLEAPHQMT
Experimental: (§2) Competitive ligand-binding assays (FIG. 1A) and HPLC analysis of Sulindac binding to RXRα, Nur77, or RARβ in HEK293T cells (FIG. 1B) were performed. RXRα LBD protein was incubated with [^3H]9-cis-RA in the presence or absence of Sulindac or unlabeled 9-cis-RA. Bound [^3H]9-cis-RA was quantitated by liquid scintillation counting (FIG. 1A). HEK293T cells stably expressing RXRαfused to a C-terminal TAP tag (Stratagene, La Jolla, Calif.) were treated with or without 100 μM sulindac sulfide for 3 hr. After treatment, cells were purified and analyzed by HPLC for the presence of sulindac sulfide. A standard solution of sulindac sulfide was used to obtain the calibration curve. Characteristic peak spectrum and retention time was used for identification, and peak areas at max used for quantification were calculated (FIGS. 1B and 10).
(§3) Expression vector containing receptor fused to C-terminal TAP fusion (Stratagene, La Jolla, Calif.) was transfected into HEK293 cells using FuGene 6 transfection reagent (Roche, Basel, Switzerland). The cells were maintained in exponential growth in complete medium, DMEM (Mediatech Inc., Herndon, Va.) supplemented with 10% calf serum (SCS, Hyclone Logan, Utah), 2 mM glutamine, penicillin (100 U/ml) and streptomycin (100 μg/ml). At two days post-transfection cells were switched into medium containing […] G418 until 20 days post-transfection, when dishes were scored for drug-resistant colonies. Expression of RXRα fusion protein was determined by immunoblotting. […] A standard solution of sulindac sulfide was used to obtain the calibration curve.

[7] = target: T5, RARβ (Homo sapiens, UniProt P10826); experiment: as above; conditions: HEK293T cells, 100 μM, 3 hr
T5 construct: expressed in transfected cells
T5 sequence (P10826 whole entry, species assumed): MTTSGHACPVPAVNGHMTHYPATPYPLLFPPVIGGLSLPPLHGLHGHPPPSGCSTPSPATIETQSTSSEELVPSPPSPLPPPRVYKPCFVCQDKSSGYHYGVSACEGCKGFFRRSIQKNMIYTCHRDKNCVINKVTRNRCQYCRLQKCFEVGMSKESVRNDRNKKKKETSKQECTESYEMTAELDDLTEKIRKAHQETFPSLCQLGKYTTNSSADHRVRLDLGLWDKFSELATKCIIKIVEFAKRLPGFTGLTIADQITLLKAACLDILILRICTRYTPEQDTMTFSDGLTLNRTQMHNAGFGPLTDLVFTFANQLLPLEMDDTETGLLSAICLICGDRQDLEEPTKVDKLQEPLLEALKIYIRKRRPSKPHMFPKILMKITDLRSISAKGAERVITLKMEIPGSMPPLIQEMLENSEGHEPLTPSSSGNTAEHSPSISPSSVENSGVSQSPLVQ
Experimental: as §2, §3

[8] = target: T6, Nur77 (Homo sapiens, UniProt P22736); experiment: as above; conditions: HEK293T cells, 100 μM, 3 hr
T6 construct: expressed in transfected cells
T6 sequence (P22736 whole entry, species assumed): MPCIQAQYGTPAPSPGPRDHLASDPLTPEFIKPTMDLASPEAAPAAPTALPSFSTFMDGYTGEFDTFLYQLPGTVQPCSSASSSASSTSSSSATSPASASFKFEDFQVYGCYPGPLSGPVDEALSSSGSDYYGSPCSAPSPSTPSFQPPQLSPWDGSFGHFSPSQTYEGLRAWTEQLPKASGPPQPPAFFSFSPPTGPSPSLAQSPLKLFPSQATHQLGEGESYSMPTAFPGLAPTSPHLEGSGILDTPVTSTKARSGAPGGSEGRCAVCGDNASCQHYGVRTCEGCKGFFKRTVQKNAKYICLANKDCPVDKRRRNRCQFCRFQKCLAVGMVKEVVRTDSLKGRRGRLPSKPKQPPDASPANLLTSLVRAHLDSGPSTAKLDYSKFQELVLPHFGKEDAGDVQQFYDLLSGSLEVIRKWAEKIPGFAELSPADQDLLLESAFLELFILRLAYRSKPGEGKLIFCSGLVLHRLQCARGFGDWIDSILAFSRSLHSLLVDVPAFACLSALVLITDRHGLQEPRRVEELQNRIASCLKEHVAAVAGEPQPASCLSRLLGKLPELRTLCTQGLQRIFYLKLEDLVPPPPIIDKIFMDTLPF
Experimental: as §2, §3

[9] = target: T3, RXRα LBD; experiment: Proteolytic protection assay (chymotrypsin sensitivity); assay type: binding; conditions: 100 μM
Experimental: Altered sensitivity of RXRα ligand-binding domain (LBD) to chymotrypsin (ug/ml) by Sulindac (100 μM) (FIG. 1C) and differential scanning calorimetry (DSC) scans comparing ^19F NMR spectra of Sulindac (100 μM) in the absence and presence of 10 μM RXRα LBD or Nur77 protein (FIG. 1D) were also determined. Binding to RXRα was confirmed by altered sensitivity of RXRα to chymotrypsin digestion by Sulindac (FIG. 1C) and differential scanning calorimetry (DSC) (FIG. 1D). In addition, inhibition of SR11237 (10^−6 M)-activated RXRα transactivation by Sulindac was measured (FIG. 1F, see Example 2).
RXRα LBD was synthesized by in vitro transcription-translation using rabbit reticulocyte lysates (Promega, Fitchburg, Wis.) as described previously (Kolluri, S. K. et al., Proc Natl Acad Sci USA 102 (7), 2525-2530 (2005); Zhang, X. K. et al., Nature 355 (6359), 441-446 (1992); Zhang, X.-K. et al., Nature. 358 (6387), 587-591 (1992)). In vitro translated ^35[S]methionine labeled RXRα-LBD was preincubated with solvent (1% DMSO), Sulindac (100 μM) or 9-cis-RA (10^−7 M) for 30 min. and then digested with indicated concentration of chymotrypsin. Digested fragments were separated by PAGE.

[10] = target: T7, RXRα/PPARγ heterodimer (Homo sapiens, UniProt P19793); experiment: DR1 tk-CAT reporter assay in CV-1 cells; assay type: cell-based; conditions: ciglitazone 10^−6 M
T7 construct: expressed in transfected cells; host or cells: CV-1 green monkey kidney cells
T7 sequence (P19793 whole entry): as the sequence (P19793 whole entry) above
T7 sequence (P37231 whole entry partner): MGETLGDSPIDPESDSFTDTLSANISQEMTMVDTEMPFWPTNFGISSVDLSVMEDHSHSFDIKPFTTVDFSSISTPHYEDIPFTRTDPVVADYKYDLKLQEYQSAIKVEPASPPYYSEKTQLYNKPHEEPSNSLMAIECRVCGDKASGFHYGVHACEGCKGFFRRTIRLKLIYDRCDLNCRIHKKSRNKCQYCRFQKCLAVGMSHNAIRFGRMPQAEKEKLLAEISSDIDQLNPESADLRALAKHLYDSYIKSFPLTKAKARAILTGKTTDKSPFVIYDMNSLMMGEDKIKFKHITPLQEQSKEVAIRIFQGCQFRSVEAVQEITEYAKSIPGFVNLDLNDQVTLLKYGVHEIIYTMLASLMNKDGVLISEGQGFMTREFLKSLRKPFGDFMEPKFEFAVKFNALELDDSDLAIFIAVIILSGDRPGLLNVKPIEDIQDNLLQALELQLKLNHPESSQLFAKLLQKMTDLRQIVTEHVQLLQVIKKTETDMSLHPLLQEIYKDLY
Experimental: Receptor expression vectors and a reporter gene (TREpal2-tk-CAT for RXRα/TRα heterodimers (FIG. 9C), and DR1 tk-CAT for RXRα/PPARγ heterodimer (FIG. 9B)) were transiently transfected into CV-1 cells. Cells were treated with or without ligands (ciglitazone, 10^−6 M; T3, 10^−7 M) in the presence or absence of Sulindac. CAT activity was determined.
Cells (1×10^5 cells/well) seeded in 24-well plates were transiently transfected using a modified calcium phosphate precipitation procedure as described (Kolluri, S. K. et al., Proc Natl Acad Sci USA 102 (7), 2525-2530 (2005); Cao, X., et al., Mol Cell Biol 24(22), 9705-9725 (2004)).

[11] = system: HepG2 cells; experiment: Caspase-8 activation by anti-cleaved caspase-8 immunostaining; assay type: cell-based; conditions: TNFα and Sulindac
Experimental: PC3 cells transfected with CA-AKT or DN-AKT were treated with TNFα and/or Sulindac, and analyzed by immunoblotting (FIG. 6F). Activation of caspase-8 (FIG. 6G) and Bax (FIG. 6H) by Sulindac and TNFα. HepG2 cells transfected with CA-AKT were treated with TNFα and Sulindac, and immunostained with anti-cleaved caspase-8 or Bax/6A7 antibody. […] Sulindac/TNFα-induced PARP cleavage was inhibited by transfection of constitutive-active AKT (CA-AKT) but enhanced by transfection of dominant-negative AKT (DN-AKT) (FIG. 6F). Consistently, induction of apoptosis (FIG. 17B) and activation of caspase-8 (FIG. 6G) and Bax (FIG. 6H) by Sulindac/TNFα combination was inhibited by CA-AKT.

[12] = system: COX; conditions: Haanen, 2001; cited from earlier work

PK profiles ([1]; preclinical study) | inhibition of COX-2 activity [3] | inhibition of COX-1 activity [4] | binding to RXRα by 19F NMR [5] | Structure (SMILES) | bioavailability ([1]; oral compared to intravenous formulation) | inhibition of ATRA-induced AKT activation, compared with Sulindac [2] | binding to RXRα in cells by HPLC [6] | binding to RAR in cells by HPLC [7] | binding to Nur77 in cells by HPLC [8] | binding to RXRα by altered sensitivity to chymotrypsin digestion [9] | transactivation of RXRα/PPARγ heterodimers (CAT activity) [10] | cells showing caspase-8 staining, CA-AKT-transfected [11] | cells showing caspase-8 staining, nontransfected [11] | COX-inhibiting activity [12]
desirable PK profiles | no detectable inhibition | no detectable inhibition | confirmed | CC1=C(CC(=O)O)c2cc(F)ccc2/C1=C\c1ccc(C(C)C)cc1 [K-80003, (Z)-2-(3-(4-Iso-propylbenzylidene)-6-fluoro-2-methyl-3H-inden-1-yl)acetic acid] | increased bioavailaility in oral compared to intravenous formulation | much more effective than Sulindac |  |  |  |  |  |  |  | 
 |  |  |  | CSc1ccc(/C=C2/C(C)=C(CC(=O)O)c3cc(F)ccc32)cc1 [Sulindac, (Z)-2-(3-(4-(Methylthio)benzylidene)-6-fluoro-2-methyl-3H-inden-1-yl)acetic acid] |  |  | direct binding | not other nuclear receptors such as RAR and Nur77 | not other nuclear receptors such as RAR and Nur77 | confirmed | inhibited transactivation | 15% | About 80% | potent COX inhibitor
